Data on one substance can be found in paper PMC10493609 (Frontiers in Immunology, 2023).

The assay addresses T1, Galectin-3 (Gal-3) (Homo sapiens, UniProt P17931).
T1 construct: gene LGALS3; Human recombinant Gal-3
Briefly: SPR kinetic analysis (Biacore). Format: binding. On the technique in general: SPR reads the build-up and loss of mass on a sensor chip optically.

A word on the Kd: it is the equilibrium constant for the complex coming apart.

T1 sequence (P17931 2-250): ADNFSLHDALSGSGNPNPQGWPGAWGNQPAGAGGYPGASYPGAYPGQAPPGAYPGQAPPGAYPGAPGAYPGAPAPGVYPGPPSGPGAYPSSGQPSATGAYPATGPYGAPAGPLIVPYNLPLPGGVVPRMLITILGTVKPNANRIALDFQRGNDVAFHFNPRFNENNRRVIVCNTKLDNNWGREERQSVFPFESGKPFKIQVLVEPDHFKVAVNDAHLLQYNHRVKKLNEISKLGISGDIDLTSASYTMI

The substance GB1211 yielded a Kd of 23.3 nM.
